Data published in article PMC12537922 (Nature Communications, 2025).

How the values were obtained:
PiAA7A = target: T1, PiAA7A (Phytophthora infestans, UniProt D0MXI7); conditions: co-substrate O2; 25 mM MES pH 6, 20 °C, 1 nM enzyme; sigmoidal (allosteric) model
T1 construct: gene PITG_02928

PiAA7D = target: T2, PiAA7D (Phytophthora infestans, UniProt D0N574); conditions: co-substrate O2; 25 mM MES pH 6, 20 °C, 1 nM enzyme; sigmoidal (allosteric) model
T2 construct: gene PITG_06591
T2 sequence (D0N574 27-508 limits assumed): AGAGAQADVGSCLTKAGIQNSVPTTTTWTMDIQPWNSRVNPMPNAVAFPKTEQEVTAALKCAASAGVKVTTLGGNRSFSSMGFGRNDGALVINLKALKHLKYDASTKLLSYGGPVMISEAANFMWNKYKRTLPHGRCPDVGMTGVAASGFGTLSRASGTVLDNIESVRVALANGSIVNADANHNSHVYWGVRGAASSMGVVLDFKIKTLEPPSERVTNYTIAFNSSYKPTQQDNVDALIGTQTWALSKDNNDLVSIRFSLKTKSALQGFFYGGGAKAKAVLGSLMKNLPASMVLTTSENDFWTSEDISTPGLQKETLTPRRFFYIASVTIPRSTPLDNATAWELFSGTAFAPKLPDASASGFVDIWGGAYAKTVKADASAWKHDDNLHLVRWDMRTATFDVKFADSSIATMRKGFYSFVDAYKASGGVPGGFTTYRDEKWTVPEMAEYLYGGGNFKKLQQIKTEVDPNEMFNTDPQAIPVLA

T1 sequence (D0MXI7 27-509 limits assumed): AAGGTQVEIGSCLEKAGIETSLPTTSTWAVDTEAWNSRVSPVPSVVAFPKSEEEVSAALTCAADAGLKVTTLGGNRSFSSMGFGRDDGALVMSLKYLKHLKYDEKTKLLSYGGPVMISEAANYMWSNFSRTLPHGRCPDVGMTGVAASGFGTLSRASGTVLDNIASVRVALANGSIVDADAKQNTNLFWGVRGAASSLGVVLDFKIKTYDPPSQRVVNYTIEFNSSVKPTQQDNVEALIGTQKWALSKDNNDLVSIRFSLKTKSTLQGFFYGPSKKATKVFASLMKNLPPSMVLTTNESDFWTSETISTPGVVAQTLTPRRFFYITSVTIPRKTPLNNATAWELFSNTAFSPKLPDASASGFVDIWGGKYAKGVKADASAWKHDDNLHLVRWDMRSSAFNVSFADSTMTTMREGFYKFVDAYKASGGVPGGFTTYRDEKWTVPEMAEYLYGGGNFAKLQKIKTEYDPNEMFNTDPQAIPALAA

SMILES | KM (PiAA7A) | KM (PiAA7D)
O=C(O)[C@H]1O[C@H](O[C@@H]2[C@H](O)[C@@H](O)[C@@H](O[C@@H]3[C@H](O)[C@@H](O)C(O)O[C@@H]3C(=O)O)O[C@@H]2C(=O)O)[C@H](O)[C@@H](O)[C@H]1O (some centres unmarked) [OG3] | a sigmoidal (allosteric) model was found to be more appropriate for PiAA7A with OG3 | –
O=C(O)[C@H]1O[C@H](O[C@@H]2[C@H](O)[C@@H](O)[C@@H](O[C@@H]3[C@H](O)[C@@H](O)[C@@H](O[C@@H]4[C@H](O)[C@@H](O)C(O)O[C@@H]4C(=O)O)O[C@@H]3C(=O)O)O[C@@H]2C(=O)O)[C@H](O)[C@@H](O)[C@H]1O (some centres unmarked) [OG4] | – | PiAA7D with OG4
